# Like-named read-outs stand apart in the source and are kept apart here.
# What was measured:
# [1] = target: T1, GLUT1 (Homo sapiens, UniProt P11166); set-up: method as in PMID 33390018; details: CAL27 cells; cited from earlier work
# T1 construct: host or cells: CAL27 squamous cell carcinoma cells
# T1 sequence (P11166 1-492): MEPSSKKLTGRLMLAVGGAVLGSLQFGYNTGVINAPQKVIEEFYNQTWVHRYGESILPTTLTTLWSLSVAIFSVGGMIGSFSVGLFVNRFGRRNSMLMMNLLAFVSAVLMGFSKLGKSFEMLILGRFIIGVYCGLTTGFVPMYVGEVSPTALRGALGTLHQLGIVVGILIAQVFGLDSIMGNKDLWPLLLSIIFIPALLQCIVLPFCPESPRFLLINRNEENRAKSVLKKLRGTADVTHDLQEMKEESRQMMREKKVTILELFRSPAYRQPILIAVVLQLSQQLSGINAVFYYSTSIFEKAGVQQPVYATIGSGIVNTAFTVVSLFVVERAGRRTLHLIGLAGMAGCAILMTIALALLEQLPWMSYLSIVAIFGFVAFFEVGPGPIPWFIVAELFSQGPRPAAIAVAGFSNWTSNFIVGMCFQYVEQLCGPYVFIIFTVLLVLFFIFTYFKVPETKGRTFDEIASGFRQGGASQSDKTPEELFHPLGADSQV
# [2] = target: T1, GLUT1; assay: Competition for GLUT1 binding with D-[14C]-glucose in CAL27 cells; format: cell-based; details: for IC50: 5 min at r.t., 1.8 μM D-[14C]-glucose, compounds 0.5–1400 μM, read-out: IC50, inhibition of D-[14C]-glucose (GLUT1 binding affinity)
# Protocol: (§1) CAL27 squamous cell carcinoma cells (ATCC CRL-2095) were purchased from the American Type Culture Collection (ATCC, Manassas, VA, USA). CAL27 cells were cultured in Dulbecco’s modified Eagle medium (DMEM; Gibco, ThermoFisher Scientific, Waltham, MA, USA) supplemented with L-glutamine (2.0 mM; ThermoFisher Scientific, Waltham, MA, USA), heat-inactivated fetal bovine serum (10%; Gibco, ThermoFisher Scientific, Waltham, MA, USA), and penicillin (50 U/mL)–streptomycin (50 μg/mL) solution (ThermoFisher Scientific, Waltham, MA, USA). CAL27 cells (passages 6–10) were seeded at the density of 5 × 10^5 cells/wells onto 24-well plates. The cells were used in affinity and uptake studies 2 days after seeding. The culture medium was removed, and the cells were washed with prewarmed Hank’s balanced salt solution (HBSS) without glucose (HBSS; 125 mM NaCl, 4.8 mM KCl, 1.2 mM MgSO4, 1.3 mM KH2PO4, 1.3 mM CaCl2, and 25 mM HEPES adjusted to pH 7.4). The cells were then incubated with HBSS at 37 °C for 10 min before the experiments.
# The GLUT1-binding ability of the studied compounds was performed by using a known radiolabeled GLUT1 substrate, D-[^14C]-glucose (PerkinElmer, Waltham, MA, USA). Briefly, after preincubation with 500 μL of prewarmed glucose free HBSS, the cells were incubated at r.t. for 5 min with studied compounds (0.5–1400 μM) containing 1.8 μM (0.1 mCi/mL) of D-[^14C]-glucose in glucose free HBSS (250 μL) and D-[^14C]-glucose as blank. The reaction was stopped with ice-cold buffer, and the cells were washed two times with ice-cold buffer on the ice bath, lysed with 250 μL of 1% perchloric acid, and mixed with 1.0 mL of emulsifier safe cocktail (PerkinElmer, Waltham, MA, USA). The radioactivity was measured by a liquid scintillation counter (MicroBeta[2] counter, PerkinElmer, Waltham, MA, USA), (Figure S12). Half-maximal inhibitory concentration (IC50) was calculated by nonlinear regression analysis.
# [3] = system: CAL27 cell line; assay: Concentration-dependent cell uptake in CAL27 cells (LC-MS/MS); format: cell-based, human; details: 5–400 μM, 5 min; for Km: read-out: Km of cellular uptake
# Protocol: as §1
# The cells were first preincubated as described above. The cell uptake of these novel compounds was studied by adding 5–400 μM of studied compounds in 250 μL of prewarmed glucose free HBSS buffer on top of the cell layer and incubating the cells at r.t. for 5 min, based on the optimal performance of D-[^14C]-glucose under these conditions. After incubation, the reaction was stopped with ice-cold buffer; the cells were then washed and lysed as described above.
# For the LC-MS/MS analysis, an aliquot was taken from the lysates and diluted with acidified acetonitrile (0.1% formic acid) 1:1, including internal standard (IS). FDG-Tz was used as an internal standard for FDR-Tz, and vice versa. After protein precipitation, the samples were centrifuged for 10 min with 10,000 × g at 4 °C. The supernatant was then collected and transferred to vials for LC-MS/MS analysis.
# The samples were analyzed with LC-MS/MS coupled with an Agilent 1200 series Rapid Resolution LC System (Agilent Technologies, Waldbronn, Germany) and Agilent 6410 Triple Quadrupole with an electrospray ionization (ESI) (Agilent Technologies, Palo Alto, CA, USA). The samples were injected (5 μL) into the reversed-phase HPLC column (Zorbax Eclipse XDB-C18 Rapid Resolution 4.6 × 50 mm, […], Agilent Technologies, Palo Alto, CA, USA). The aqueous mobile phase was 0.1% formic acid in water (A), while the organic mobile phase was 0.1% formic acid in acetonitrile (B).
# The column temperature was 40 °C and the flow rate of 0.5 mL/min was used, with the following gradient 0–4 min: 5% → 95% B, 4–6 min: 95% B, 6–6.1 min: 95% → 5% B, 6.1–8 min: 5% B. The following instrument optimizations were used: 300 °C sheath gas heat, 6.5 L/min drying gas flow, 25 psi nebulizer pressure, and 4000 V capillary voltage, respectively. Detection was performed by using multiple reaction monitoring (MRM) with the following transitions: m/z 425 → 261 for FDG-Tz and m/z 395 → 261 for FDR-Tz.
# The lower limit of quantification (LLOQ) for both studied compounds was 5 nM. These LC-MS/MS methods were also selective, accurate (RSD < 15%) and precise (RSD < 15%) over the range 5.0–2500 nM, with good linearity (R^2 > 0.993).
# Three replicates were analyzed from each concentration, and the statistical analyses were performed using GraphPad Prism v.5.03 software (GraphPad Software, San Diego, CA, USA).
IC50 [2] [µM],Fold higher affinity for GLUT1 compared to FDG-Tz ([2]; ratio of IC50 values) [times],SMILES,IC50 [1] [µM],Concentration dependence of cellular uptake (shape of curve) [3],Vmax of cellular uptake [3],Km [3] [µM]
,,OC[C@H]1OC(O)[C@H](O)[C@@H](O)[C@@H]1O (stereo partly drawn) [D-glucose],> 1000,,,
324,,"O=C(CON=C[C@H](F)[C@@H](O)[C@H](O)C(O)CO)NCc1ccc(-c2nncnn2)cc1 (stereo partly drawn) [FDG-Tz, N-(4-(1,2,4,5-tetrazin-3-yl)benzyl)-2-((((2S,3S,4R)-2-fluoro-3,4,5,6-tetrahydroxyhexylidene)amino)oxy)acetamide]",,concentration-dependent,63.2 ± 8.5 pmol/min/mg of protein,27.6 ± 13.8
22.4,~15,"O=C(CON=C[C@@H](O)[C@@H](O)[C@@H](O)CF)NCc1ccc(-c2nncnn2)cc1 [FDR-Tz, N-(4-(1,2,4,5-tetrazin-3-yl)benzyl)-2-((((2R,3R,4R)-5-fluoro-2,3,4-trihydroxypentylidene)amino)oxy)acetamide, reference compound]",,,27.8 ± 3.7 pmol/min/mg of protein,3.6 ± 7.8

# Source: paper PMC10702189, “Tetrazine Glycoconjugate for Pretargeted Positron Emission Tomography Imaging of trans-Cyclooctene-Functionalized Molecular Spherical Nucleic Acids” (ACS Omega, 2023)
